Patent US20070123556A1, “Treatment with Sigma Receptor Agonists Post-Stroke” (UNIVERSITY OF SOUTH FLORIDA, priority 2005, published 2007)
Where two headings read alike, the source gives them in different places.

Legend:
[1] = tested on: ASIC channels; test: low-pH (pH 6.0) evoked ASIC-mediated increases in [Ca2+]i; type: cell-based, rat; settings: 50 μM, pH 6.0, reversible
[2] = molecular target: sigma-1 receptors (Homo sapiens, UniProt Q99720); settings: cited from earlier work
[3] = tested on: delayed outwardly rectifying K+ channels; settings: frog pituitary melanotrophs; read-out: IC50 inhibition of delayed outwardly rectifying K+ channels; cited from earlier work
[4] = tested on: cultured cortical neurons; test: in vitro ischemia (sodium azide/glucose deprivation), fura-2 [Ca2+]i; type: cell-based, rat; settings: for IC50: Langmuir-Hill fit, read-out: IC50 (half-maximal concentration), inhibition of ischemia-evoked increases in [Ca2+]i
Procedure: The effects of sigma receptors on ischemia-induced changes in intracellular calcium concentrations were studied in cultured cortical neurons from embryonic (E18) rats. Dams were euthanatized by decapitation, uterus removed, and embryos dissected out and placed in isotonic buffer containing (in mM): 137 NaCl, 5 KCl, 0.2 NaH2PO4, 0.2 KH2PO4, 5.5 glucose, 6 sucrose (pH 7.4 with NaOH). Cortex were excised and minced, and tissue digested in isotonic buffer containing 0.25% trypsin/EDTA for 10 min at 37° C. and added to 3× volume of high glucose culture media (Dulbecco's Modified Eagle Media; Invitrogen, Inc., Carlsbad, Calif.), 10% (v/v) fetal calf serum, 100 U/ml penicillin and 0.1 mg/ml streptomycin. Cells were counted on a hemocytometer, plated (0.5×10^6 cells) on 18 mm coverslips coated with poly-l-lysine, and incubated at 37° C. under a 95% air, 5% CO2 atmosphere. After 24 hr the media was replaced with Neurobasal (Invitrogen) medium supplemented with B27 (Invitrogen) and 0.5 mM 1-glutamine to limit astrocyte proliferation in the cultures. Cells were used after 14-21 days in culture.
Intracellular free-calcium was measured using the calcium sensitive dye, fura-2 as previously described (DeHaven and Cuevas, 2004). Cells plated on coverslips were incubated for 1 hour at room temperature in physiological saline solution (PSS) consisting of (in mM): 140 NaCl, 3 KCl, 2.5 CaCl2, 1.2 MgCl2, 7.7 glucose and 10 HEPES (pH to 7.2 with NaOH), which also contained 1 μM of the membrane permeable ester form of fura-2, acetoxymethylester (fura-2 AM) and 0.1% dimethyl sulfoxide (DMSO). The coverslips were then washed in PSS (fura-2 AM free) prior to the experiments being carried out. All solutions were applied via a rapid application system identical to that previously described (Cuevas and Berg, 1998).
A DG-4 high-speed wavelength switcher (Sutter Instruments Co., Novato, Calif.) was used to apply alternating excitation light, and fluorescent emission was captured using a Sensicam digital CCD camera (Cooke Corporation, Auburn Hills, Mich.) and recorded with Slidebook 3.0 software (Intelligent Imaging Innovations, Denver, Colo.). Changes in [Ca^2+]i were calculated using the Slidebook 3 software (Intelligent Imaging Innovations) using methods described previously (DeHaven and Cuevas, 2004).
In vitro ischemia was achieved using the sodium azide/glucose deprivation model.
The control bath solution for all experiments was a physiological saline solution (PSS) containing (in mM) 140 NaCl, 1.2 MgCl2, 3 KCl, 2.5 CaCl2, 7.7 glucose and 10 HEPES, pH to 7.2 with NaOH. All drugs were applied in this solution unless otherwise noted. In vitro ischemia was induced by addition of the cytochrome oxidase inhibitor, NaN3 (4 mM), and removal of glucose from the PSS. For experiments in which multiple ischemic episodes were induced in a single cell, the order of drug application was alternatively reversed to compensate for any effects due to rundown, desensitization or ischemic preconditioning. For experiments with metaphit, cells were preincubated in 50 μM metaphit during the last 15 mm of fura-2 loading and immediately prior to experiments being conducted. The metaphit was washed off for 5 min in the bath using PSS.

[5] = tested on: voltage-gated K channels; settings: rat intracardiac neurons; read-out: IC50 inhibition of voltage-gated K channels; cited from earlier work
[6] = tested on: glutamate receptors; settings: cited from earlier work
[7] = tested on: transient ischemia model (MCAO); settings: intravenous, 1-2 hr following reperfusion; cited from earlier work
[8] = tested on: rat hippocampal slices; settings: rat hippocampal slices (Thurgur and Church, 1998); read-out: value reported for inhibition of epileptiform activity; cited from earlier work
[9] = tested on: cultured cortical neurons; test: spontaneous Ca2+ transients, fura-2 [Ca2+]i; type: cell-based, rat
[10] = tested on: voltage-gated Ca2+; settings: rat intracardiac neurons; read-out: IC50 inhibition of voltage-gated Ca2+; cited from earlier work
[11] = molecular target: sigma-2 receptors (Homo sapiens, UniProt Q5BJF2); settings: cited from earlier work
Sequence of sigma-2 receptors (Q5BJF2 whole entry): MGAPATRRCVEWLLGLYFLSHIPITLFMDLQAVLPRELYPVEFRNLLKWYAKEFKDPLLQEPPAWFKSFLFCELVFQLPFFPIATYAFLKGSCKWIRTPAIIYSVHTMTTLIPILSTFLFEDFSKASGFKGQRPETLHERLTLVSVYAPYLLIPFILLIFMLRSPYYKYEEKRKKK

Sequence of sigma-1 receptors (Q99720 whole entry): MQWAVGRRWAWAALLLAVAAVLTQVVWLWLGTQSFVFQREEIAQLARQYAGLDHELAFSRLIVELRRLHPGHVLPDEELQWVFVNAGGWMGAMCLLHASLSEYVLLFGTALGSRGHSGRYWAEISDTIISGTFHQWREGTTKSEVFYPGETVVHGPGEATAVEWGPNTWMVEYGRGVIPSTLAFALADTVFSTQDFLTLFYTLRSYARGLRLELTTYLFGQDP

CC(C)=CCN1CCC2(C)c3cc(O)ccc3CC1C2C (single isomer, unassigned; (+)) [(+)-pentazocine]
decrease of low-pH evoked increases in [Ca2+]i [1]: 50% | affinity of sigma-1 receptors relative to ibogaine [2]: ~2000 fold | IC50 [3]: 37 µM | decrease of ischemia-induced elevations in [Ca2+]i ([4]; 10 μM): 37±5% | decrease of ischemia-induced elevations in [Ca2+]i ([4]; 10 μM, listed as (+) pentazocine): ~60% | decrease of ischemia-induced elevations in [Ca2+]i ([4]; 100 μM): 49±4% | IC50 [5]: 42 µM

C=CCN1CCC2(C)c3cc(O)ccc3CC1C2C (single isomer, unassigned; (+)) [(+)SKFIOO47]
inhibition of calcium elevations evoked by glutamate application ([6]; 10 μM): inhibit

CN(C)CCN(C)CCc1ccc(Cl)c(Cl)c1 [BD-1047, N-[2-(3,4-dichlorophenyl)ethyl]-N-methyl-2-(dimethylamino)ethylamine]
reduction of the effects of DTG on ischemia-evoked calcium transients ([4]; 1 pM BD-1047, with DTG): 15% | reduction of the effects of DTG on ischemia-evoked calcium transients ([4]; 10 pM BD-1047, with DTG): 55%

c1ccc(CCCCN2CCC(c3ccccc3)CC2)cc1 [PPBP, 4-phenyl-1-(4-phenylbutyl)piperidine]
decrease in neurodegeneration in brain sections [7]: 40%

O=C(OCCN1CCOCC1)C1(c2ccccc2)CCCCC1 [PRE-084]
decrease of ischemia-induced elevations in [Ca2+]i ([4]; 10 μM): 26±4% | decrease of ischemia-induced elevations in [Ca2+]i ([4]; 100 μM): 58±1%

NC1=N[C@H](O)[C@H]2[C@H]3O[C@]4(O)O[C@@H]([C@@H](O)[C@@]2(N1)[C@@H]4O)[C@]3(O)CO [TTX, tetrodotoxin]
decrease of ischemia-evoked increase in [Ca2+]i [4]: 65±4%

CCN(CC)CCOCCOC(=O)C1(c2ccccc2)CCCC1 [carbetapentane]
affinity of sigma-1 receptors relative to sigma-2 receptors ([2]; sigma-1 over sigma-2): > 30 fold | IC50 [8]: 38 µM | inhibition of calcium elevations evoked by glutamate application ([6]; 100 μM): not | IC50 [4]: 13 µM | IC50 ([4]; Rattus norvegicus, Cortical neurone): 13.3 µM | effect on spontaneous increases in [Ca2+]i (number of events) ([9]; 100 μM): significant decrease

O=C(CCCN1CCC(O)(c2ccc(Cl)cc2)CC1)c1ccc(F)cc1 [haloperidol]
inhibition of calcium elevations evoked by glutamate application ([6]; 10 μM): inhibit

C/C=C(/C)C(=O)O[C@H]1C(C)=C2[C@H]([C@@H]1OC(=O)CCCCCCC)[C@@](C)(OC(C)=O)C[C@H](OC(=O)CCC)[C@@]1(O)[C@H]2OC(=O)[C@@]1(C)O [thapsigargin]
effect on ischemia-induced peak elevation in [Ca2+]i ([4]; 10 μM, thapsigargin by preincubation): decreased the peak elevation

ibogaine
decrease of low-pH evoked increases in [Ca2+]i [1]: 70% | IC50 [10]: 31 µM | effect on ischemia-induced elevations in [Ca2+]i ([4]; 1-100 μM): failed to inhibit | effect on number of spontaneous calcium events ([9]; 50 μM): significantly decreased | affinity of sigma-2 receptors relative to (+)-pentazocine [11]: ~6 fold | affinity of sigma-2 receptors relative to sigma-1 receptors ([11]; sigma-2 over sigma-1): > 40 fold

metaphit
ischemia-induced elevation in [Ca2+]i ([4]; preincubation in 50 μM metaphit, no DTG): 495 ± 68 nM

ryanodine
effect on ischemia-induced peak elevation in [Ca2+]i [4]: did not significantly alter
